Target: T1, human GPR119 (hGPR119) (Homo sapiens, UniProt Q8TDV5)
T1 construct: expressed in transfected cells
T1 sequence (Q8TDV5 1-335): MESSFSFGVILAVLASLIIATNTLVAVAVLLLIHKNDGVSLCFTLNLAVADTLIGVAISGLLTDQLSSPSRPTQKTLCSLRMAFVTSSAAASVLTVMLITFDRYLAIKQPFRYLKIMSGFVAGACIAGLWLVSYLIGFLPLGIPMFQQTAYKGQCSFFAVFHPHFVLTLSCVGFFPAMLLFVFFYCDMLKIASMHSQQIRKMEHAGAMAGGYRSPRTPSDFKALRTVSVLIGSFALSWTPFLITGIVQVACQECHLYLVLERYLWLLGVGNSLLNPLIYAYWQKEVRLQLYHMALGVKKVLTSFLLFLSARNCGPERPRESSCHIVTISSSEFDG
Experiment: cAMP accumulation assay (cAMP Gs dynamic HTRF kit)
Type: cell-based
Details: CHO-K1 cells stably expressing hGPR119, 4-parameter fit; for Emax: 1 h, % activity normalized to Max/Min controls; for EC50: cAMP accumulation
Description: CHO-K1 cells stably expressing human GPR119 (hGPR119) were prepared by transfection of a GPR119-carrying plasmid using Lipofectamine 2000 (following manufacturer instructions). A stable cell line was established using the limiting dilution method with geneticine selection. Assay-ready frozen (ARF) cells were prepared and used throughout the study.
The assay was performed in a 384-well plate format using the cAMP Gs dynamic assay kit from Cisbio. ARF cells expressing hGPR119 were thawed, washed and then resuspended in cAMP stimulation buffer at a cell density of 1.1×10^6 cells/mL. Cells were plated at a density of ˜10,000 cells/well (9 μL/well). Dose response curves for the tested compounds were prepared in a cAMP stimulation buffer, containing 0.1% Tween 80 at 4 fold the final concentration. The compounds were then transferred to the cell plates using BRAVO (3 μL/well) and the plates were incubated for 60 minutes at 37° C./5% CO2. Detection buffer (10 μL, prepared as described in the cAMP Gs dynamic kit) were added to each well, and the plates were incubated at ambient temperature for 1 hr.
RT-FRET was measured using a ClarioSTAR plate reader, calculating the ratio between emissions at 665 nm and 620 nm (HTRF ratio). The HTRF ratio for positive (Max) and negative (Min) controls were used to normalize HTRF data and generate values for % activity. EC50 and Max activity values were determined using a standard 4-parameter fit.

SMILES | Emax | EC50
O=C(Cc1ccc(OCCCC2CCN(c3ncc(Cl)cn3)CC2)cc1F)NCCCCCNC(CO)CO [Example 1, 2-[4-[3-[1-(5-chloropyrimidin-2-yl)-4-piperidyl]propoxy]-2-fluoro-phenyl]-N-[5-[[2-hydroxy-1-(hydroxymethyl)ethyl]amino]pentyl]acetamide] | ≥ 130% | 100 to 1000 nM
CC[N+](CC)(CC)CCCCCNC(=O)Cc1ccc(OCCCC2CCN(c3ncc(Cl)cn3)CC2)cc1F [Example 2, 5-[[2-[4-[3-[1-(5-chloropyrimidin-2-yl)-4-piperidyl]propoxy]-2-fluoro-phenyl]acetyl]amino]pentyl-triethyl-ammonium] | ≥ 130% | 100 to 1000 nM
O=C(Cc1ccc(OCCCC2CCN(c3ncc(Cl)cn3)CC2)cc1F)NCCCCCNC[C@H](O)[C@@H](O)[C@H](O)[C@H](O)CO [Example 3] | ≥ 130% | 100 to 1000 nM
CCCc1cnc(N2CCC(CCCOc3cc(F)c(CC(=O)NCCCCC[N+](CC)(CC)CC)c(F)c3)CC2)nc1 [Example 4, 5-[[2-[2,6-difluoro-4-[3-[1-(5-propylpyrimidin-2-yl)-4-piperidyl]propoxy]phenyl]acetyl]amino] pentyl-triethyl-ammonium] | 100 to 130% | 100 to 1000 nM
O=C(Cc1ccc(OCCCC2CCN(c3ncc(Cl)cn3)CC2)cc1F)NC(CO)(CO)CO [Example 5, 2-[4-[3-[1-(5-chloropyrimidin-2-yl)-4-piperidyl]propoxy]-2-fluoro-phenyl]-N-[2-hydroxy-1,1-bis(hydroxymethyl)ethyl]acetamide] | 100 to 130% | 100 to 1000 nM
O=C(Cc1c(F)cc(OCCCC2CCN(c3ncc(Cl)cn3)CC2)cc1F)NC(CO)(CO)CO [Example 6, 2-[4-[3-[1-(5-chloropyrimidin-2-yl)-4-piperidyl]propoxy]-2,6-difluoro-phenyl]-N-[2-hydroxy-1,1-bis(hydroxymethyl)ethyl]acetamide] | 100 to 130% | 100 to 1000 nM
CCc1cnc(N2CCC(CCCOc3cc(F)c(CC(=O)NC(CO)(CO)CO)c(F)c3)CC2)nc1 [Example 7, 2-[4-[3-[1-(5-ethylpyrimidin-2-yl)-4-piperidyl]propoxy]-2,6-difluoro-phenyl]-N-[2-hydroxy-1,1-bis(hydroxymethyl)ethyl]acetamide] | 100 to 130% | ≤ 100 nM
CCCc1cnc(N2CCC(CCCOc3cc(F)c(CC(=O)NC(CO)(CO)CO)c(F)c3)CC2)nc1 [Example 8, 2-[2,6-difluoro-4-[3-[1-(5-propylpyrimidin-2-yl)-4-piperidyl]propoxy]phenyl]-N-[2-hydroxy-1,1-bis(hydroxymethyl)ethyl]acetamide] | 100 to 130% | ≤ 100 nM
O=C(Cc1ccc(OCCCC2CCN(c3ncc(Cl)cn3)CC2)cc1F)N1CC(CO)(CO)C1 [Example 9, 1-[3,3-bis(hydroxymethyl)azetidin-1-yl]-2-[4-[3-[1-(5-chloropyrimidin-2-yl)-4-piperidyl]propoxy]-2-fluoro-phenyl]ethanone] | 100 to 130% | ≤ 100 nM
O=C(Cc1ccc(OCCCC2CCN(c3ncc(Cl)cn3)CC2)cc1F)NCCS(=O)(=O)O [Example 10, 2-[[2-[4-[3-[1-(5-chloropyrimidin-2-yl)-4-piperidyl]propoxy]-2-fluoro-phenyl]acetyl]amino]ethanesulfonic acid] | ≥ 130% | 1000 to 10000 nM
O=C(Cc1ccc(OCCCC2CCN(c3ncc(Cl)cn3)CC2)cc1F)NCCCS(=O)(=O)O [Example 11, 3-[[2-[4-[3-[1-(5-chloropyrimidin-2-yl)-4-piperidyl]propoxy]-2-fluoro-phenyl]acetyl]amino]propane-1-sulfonic acid] | ≥ 130% | 1000 to 10000 nM
O=C(Cc1ccc(OCCCC2CCN(c3ncc(Cl)cn3)CC2)cc1F)NCCCCS(=O)(=O)O [Example 12, 4-[[2-[4-[3-[1-(5-chloropyrimidin-2-yl)-4-piperidyl]propoxy]-2-fluoro-phenyl]acetyl]amino]butane-1-sulfonic acid] | ≥ 130% | 1000 to 10000 nM
